Experimental data from PMC12494099, “Discovery and Characterization of Novel IKZF1/3 Glue Degraders against Multiple Hematological Cancer Cell Lines” (Oncology Research, 2025).

Experiments:
Type in all cases: cell-based
MV-4-11 = assay: Cell viability (CCK-8) assay; details: 96 h, CCK-8
Protocol: (§1) The plated at a density of 15,000 cells per well, and each well contained 100 µL of medium. Subsequently, different compounds (MGD-AX, MGD-BX, MGD-CX) were added to each well. […] To evaluate the antiproliferative effects of these compounds, the Cell Counting Kit-8 (CCK-8, #CX007, Epizyme, Shanghai, China) was used. All procedures were carried out in strict accordance with the manufacturer’s instructions (Dojindo Laboratories, Mamoto Ken, Japan).

NCI-H929 = assay: Cell viability (CCK-8) assay
Protocol: as §1

Ocl-Ly3 = assay: Cell viability (CCK-8) assay; details: 96 h, CCK-8
Protocol: as §1

IKZF1-HiBiT = target: T1, IKZF1-HiBiT (Homo sapiens, UniProt Q13422+Q96SW2); assay: Quantitative degradation assay using the HiBiT system (HEK293T); details: HEK-293T; HEK293T IKZF1-HiBiT, 24 h; read-out: maximal degradation (Dmax) on IKZF1
T1 construct: expressed in transfected cells; host or cells: HEK293T
T1 sequence (Q13422 whole entry): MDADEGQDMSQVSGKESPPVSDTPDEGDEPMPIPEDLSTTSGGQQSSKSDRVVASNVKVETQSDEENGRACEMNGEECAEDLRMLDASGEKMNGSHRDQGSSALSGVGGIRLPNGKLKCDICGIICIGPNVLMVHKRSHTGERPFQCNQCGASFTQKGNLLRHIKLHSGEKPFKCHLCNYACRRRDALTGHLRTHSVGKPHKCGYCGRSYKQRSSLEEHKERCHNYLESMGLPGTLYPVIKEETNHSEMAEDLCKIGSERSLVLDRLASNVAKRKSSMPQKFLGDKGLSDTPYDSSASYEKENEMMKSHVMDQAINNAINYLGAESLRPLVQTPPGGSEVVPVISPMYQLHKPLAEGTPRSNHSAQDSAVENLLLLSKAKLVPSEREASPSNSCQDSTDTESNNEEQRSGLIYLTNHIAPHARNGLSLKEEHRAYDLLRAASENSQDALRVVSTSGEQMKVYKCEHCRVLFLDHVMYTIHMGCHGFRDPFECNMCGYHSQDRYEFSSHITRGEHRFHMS
T1 sequence (Q96SW2 whole entry): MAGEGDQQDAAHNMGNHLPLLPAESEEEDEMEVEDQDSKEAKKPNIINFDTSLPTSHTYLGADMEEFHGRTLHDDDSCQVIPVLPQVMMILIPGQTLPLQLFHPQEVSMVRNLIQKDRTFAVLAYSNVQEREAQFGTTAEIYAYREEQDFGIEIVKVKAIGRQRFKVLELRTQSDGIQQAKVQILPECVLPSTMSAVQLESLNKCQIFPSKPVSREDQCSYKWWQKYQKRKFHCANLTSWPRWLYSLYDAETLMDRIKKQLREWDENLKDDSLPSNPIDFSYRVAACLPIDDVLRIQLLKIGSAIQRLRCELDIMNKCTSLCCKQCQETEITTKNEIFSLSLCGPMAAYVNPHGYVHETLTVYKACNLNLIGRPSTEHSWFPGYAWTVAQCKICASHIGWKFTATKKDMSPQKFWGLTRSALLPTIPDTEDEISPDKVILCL
T1 sequence (Q16531 whole entry partner): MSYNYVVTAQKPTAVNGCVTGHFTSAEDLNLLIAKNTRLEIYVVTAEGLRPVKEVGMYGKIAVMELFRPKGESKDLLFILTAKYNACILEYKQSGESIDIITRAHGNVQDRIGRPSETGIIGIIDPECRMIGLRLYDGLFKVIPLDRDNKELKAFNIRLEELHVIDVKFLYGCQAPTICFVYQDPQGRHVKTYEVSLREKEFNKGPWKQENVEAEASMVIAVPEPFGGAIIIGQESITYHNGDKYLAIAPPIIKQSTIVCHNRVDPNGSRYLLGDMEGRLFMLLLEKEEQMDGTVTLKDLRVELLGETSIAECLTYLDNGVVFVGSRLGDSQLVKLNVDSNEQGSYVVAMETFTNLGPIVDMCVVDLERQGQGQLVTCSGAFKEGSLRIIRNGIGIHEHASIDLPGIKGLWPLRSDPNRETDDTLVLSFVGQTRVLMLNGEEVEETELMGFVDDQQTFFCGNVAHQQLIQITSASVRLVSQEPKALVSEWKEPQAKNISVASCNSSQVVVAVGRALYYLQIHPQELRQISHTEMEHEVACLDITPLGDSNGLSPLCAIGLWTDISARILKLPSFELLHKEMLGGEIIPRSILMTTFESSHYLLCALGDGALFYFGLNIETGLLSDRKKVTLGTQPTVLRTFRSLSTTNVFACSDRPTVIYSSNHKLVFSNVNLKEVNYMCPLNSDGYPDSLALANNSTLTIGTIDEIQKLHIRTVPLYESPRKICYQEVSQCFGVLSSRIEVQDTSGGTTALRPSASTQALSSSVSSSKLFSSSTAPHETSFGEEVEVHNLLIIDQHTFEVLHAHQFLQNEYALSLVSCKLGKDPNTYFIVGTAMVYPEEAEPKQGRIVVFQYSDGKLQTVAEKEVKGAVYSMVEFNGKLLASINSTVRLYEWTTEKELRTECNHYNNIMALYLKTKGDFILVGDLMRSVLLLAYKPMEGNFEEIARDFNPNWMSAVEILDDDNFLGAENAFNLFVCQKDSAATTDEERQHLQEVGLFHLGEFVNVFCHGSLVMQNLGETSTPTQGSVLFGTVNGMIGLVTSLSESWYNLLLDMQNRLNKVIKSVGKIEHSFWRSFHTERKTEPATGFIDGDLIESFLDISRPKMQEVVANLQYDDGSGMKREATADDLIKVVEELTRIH
Protocol: (§2) An in vitro quantitative degradation assay utilizing the HiBiT system was carried out as previously described. To evaluate the degradation of IKZF1, IKZF2, and IKZF3 proteins, HEK293T cell lines stably expressing IKZF1-, IKZF2-, IKZF3-, GSPT1- or CK1α-HiBiT were cultured in 96-well plates at 12,000 cells per well. […] After the treatment, cell lysis was carried out using the Nano-Glo HiBiT Lytic Detection System (#N3040, Promega). All lysis operations were strictly carried out according to the manufacturer’s specific protocol. Then, the SpectraMax iD3 instrument (Molecular Devices, San Jose, CA, USA) was used to detect the luminescent signals released by the HiBiT-tagged neosubstrates.

IKZF3-HiBiT = target: T2, IKZF3-HiBiT (Homo sapiens, UniProt Q96SW2+Q9UKT9); assay: as above; details: HEK-293T; HEK293T IKZF3-HiBiT, 24 h; read-out: maximal degradation (Dmax) on IKZF3
T2 construct: expressed in transfected cells; host or cells: HEK293T
T2 sequence (Q9UKT9 whole entry): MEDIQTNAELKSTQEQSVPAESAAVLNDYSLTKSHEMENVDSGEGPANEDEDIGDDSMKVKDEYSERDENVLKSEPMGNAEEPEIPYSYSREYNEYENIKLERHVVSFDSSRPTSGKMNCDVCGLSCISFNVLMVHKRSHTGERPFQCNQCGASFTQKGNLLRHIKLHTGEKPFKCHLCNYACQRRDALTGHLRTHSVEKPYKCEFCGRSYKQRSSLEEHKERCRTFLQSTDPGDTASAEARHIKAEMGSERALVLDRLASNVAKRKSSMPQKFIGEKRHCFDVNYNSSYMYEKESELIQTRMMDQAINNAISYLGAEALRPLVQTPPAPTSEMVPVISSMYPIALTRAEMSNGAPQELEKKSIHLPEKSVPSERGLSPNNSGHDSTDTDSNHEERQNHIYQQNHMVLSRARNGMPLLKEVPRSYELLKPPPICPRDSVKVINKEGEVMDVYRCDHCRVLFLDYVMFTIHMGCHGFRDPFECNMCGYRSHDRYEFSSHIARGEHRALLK
T2 sequence (Q96SW2 whole entry): as the sequence (Q96SW2 whole entry) above
T2 sequence (Q16531 whole entry partner): as the sequence (Q16531 whole entry partner) above
Protocol: as §2

| Compound | IC50 (MV-4-11; Homo sapiens, MV4-11, 96 h) | IC50 (NCI-H929; Homo sapiens, NCI-H929, 96 h) | IC50 (Ocl-Ly3) | Dmax (IKZF1-HiBiT) | Dmax (IKZF3-HiBiT) | IC50 (MV-4-11) | IC50 (NCI-H929; 96 h) |
| --- | --- | --- | --- | --- | --- | --- | --- |
| Cc1nc2cccc(N)c2c(=O)n1C1CCC(=O)NC1=O (centres unmarked) [Avadomide, reference compound] | 0.85 µM | 0.2 µM | 15.5 µM | 80.4% | 83.1% | – | – |
| Nc1cccc2c1CN(C1CCC(=O)NC1=O)C2=O (centres unmarked) [Lenalidomide, reference compound] | 17.9 ± 1.7 µM | 7.36 ± 0.7 µM | 27.6 ± 2.63 µM | – | – | – | – |
| O=C1CCC(NC(=O)c2cccc(CNC3CC3)c2)C(=O)N1 (centres unmarked) [MGD-A1, 3-((cyclopropylamino)methyl)-N-(2,6-dioxopiperidin-3-yl)benzamide] | 7.34 ± 0.7 µM | 10.3 ± 0.98 µM | > 33 µM | – | – | – | – |
| O=C1CCC(NC(=O)c2cccc(CNCC3CC3)c2)C(=O)N1 (centres unmarked) [MGD-A2, 3-(((cyclopropylmethyl)amino)methyl)-N-(2,6-dioxopiperidin-3-yl)benzamide] | 8.3 ± 0.79 µM | 12.7 ± 1.21 µM | 21.3 ± 2.03 µM | – | – | – | – |
| CC1CCCCN1Cc1cccc(C(=O)NC2CCC(=O)NC2=O)c1 (centres unmarked) [MGD-A3, N-(2,6-dioxopiperidin-3-yl)-3-((2-methylpiperidin-1-yl)methyl)benzamide] | 6.03 ± 0.58 µM | 5.39 ± 0.51 µM | 7.27 ± 0.69 µM | – | – | – | – |
| CC1CCCN(Cc2cccc(C(=O)NC3CCC(=O)NC3=O)c2)C1 (centres unmarked) [MGD-A4, N-(2,6-dioxopiperidin-3-yl)-3-((3-methylpiperidin-1-yl)methyl)benzamide] | 3.11 ± 0.3 µM | 4.56 ± 0.44 µM | 6.33 ± 0.6 µM | – | – | – | – |
| CC1CCN(Cc2cccc(C(=O)NC3CCC(=O)NC3=O)c2)CC1 (centres unmarked) [MGD-A5, N-(2,6-dioxopiperidin-3-yl)-3-((4-methylpiperidin-1-yl)methyl)benzamide] | 2.03 ± 0.19 µM | 2.88 ± 0.28 µM | 4.03 ± 0.38 µM | – | – | – | – |
| CC1CCCC(C)N1Cc1cccc(C(=O)NC2CCC(=O)NC2=O)c1 (centres unmarked) [MGD-A6, 3-((2,6-dimethylpiperidin-1-yl)methyl)-N-(2,6-dioxopiperidin-3-yl)benzamide] | 3.44 ± 0.33 µM | 3.02 ± 0.38 µM | 5.9 ± 0.56 µM | – | – | – | – |
| CCN1CCN(Cc2cccc(C(=O)NC3CCC(=O)NC3=O)c2)CC1 (centres unmarked) [MGD-A8, N-(2,6-dioxopiperidin-3-yl)-3-((4-ethylpiperazin-1-yl)methyl)benzamide] | 0.8 ± 0.1 µM | 0.9 ± 0.13 µM | 4.12 ± 0.39 µM | – | – | – | – |
| CC1CCCC(C)N1C(=O)c1cccc(C(=O)NC2CCC(=O)NC2=O)c1 (centres unmarked) [MGD-A13, 3-(2,6-dimethylpiperidine-1-carbonyl)-N-(2,6-dioxopiperidin-3-yl)benzamide] | 9.26 ± 0.88 µM | 10.3 ± 0.98 µM | 17.2 ± 1.64 µM | – | – | – | – |
| O=C1CCC(NC(=O)c2cccc(C(=O)N3CCSCC3)c2)C(=O)N1 (centres unmarked) [MGD-A15, N-(2,6-dioxopiperidin-3-yl)-3-(thiomorpholine-4-carbonyl)benzamide] | 4.45 ± 0.42 µM | 6.9 ± 0.66 µM | 9.43 ± 0.9 µM | – | – | – | – |
| O=C1CCC(NC(=O)c2cccc(CN3CCCC3)n2)C(=O)N1 (centres unmarked) [MGD-B1, N-(2,6-dioxopiperidin-3-yl)-6-(pyrrolidin-1-ylmethyl)picolinamide] | 15 ± 1.42 µM | 7.9 ± 0.75 µM | 22.4 ± 2.13 µM | – | – | – | – |
| O=C1CCC(NC(=O)c2cccc(CN3CCCCC3)n2)C(=O)N1 (centres unmarked) [MGD-B2, N-(2,6-dioxopiperidin-3-yl)-6-(piperidin-1-ylmethyl)picolinamide] | 6.78 ± 0.65 µM | 8.5 ± 0.81 µM | > 33 µM | – | – | – | – |
| CN1CCN(Cc2cccc(C(=O)NC3CCC(=O)NC3=O)n2)CC1 (centres unmarked) [MGD-B3, N-(2,6-dioxopiperidin-3-yl)-6-((4-methylpiperazin-1-yl)methyl)picolinamide] | 0.72 ± 0.13 µM | 0.92 ± 0.12 µM | 2.03 ± 0.39 µM | – | – | – | – |
| O=C1CCC(NC(=O)c2cccc(CN3CCOCC3)n2)C(=O)N1 (centres unmarked) [MGD-B4, N-(2,6-dioxopiperidin-3-yl)-6-(morpholinomethyl)picolinamide] | 3.02 ± 0.29 µM | 4.65 ± 0.44 µM | 15 ± 1.42 µM | – | – | – | – |
| O=C1CCC(NC(=O)c2cccc(CN3CCSCC3)n2)C(=O)N1 (centres unmarked) [MGD-B5, N-(2,6-dioxopiperidin-3-yl)-6-(thiomorpholinomethyl)picolinamide] | 1.58 ± 0.47 µM | 2.77 ± 0.36 µM | 4.68 ± 2.44 µM | – | – | – | – |

| Compound | IC50 (MV-4-11; Homo sapiens, MV4-11, 96 h) | IC50 (NCI-H929; Homo sapiens, NCI-H929, 96 h) | IC50 (Ocl-Ly3) | Dmax (IKZF1-HiBiT) | Dmax (IKZF3-HiBiT) | IC50 (MV-4-11) | IC50 (NCI-H929; 96 h) |
| --- | --- | --- | --- | --- | --- | --- | --- |
| O=C1CCC(NC(=O)c2cccc(CN3CCCC3=O)n2)C(=O)N1 (centres unmarked) [MGD-B6, N-(2,6-dioxopiperidin-3-yl)-6-((2-oxopyrrolidin-1-yl)methyl)picolinamide] | 3.34 ± 0.32 µM | 4.89 ± 0.47 µM | 27.5 ± 2.62 µM | – | – | – | – |
| O=C1CCC(NC(=O)c2cccc(CN3CCCCC3=O)n2)C(=O)N1 (centres unmarked) [MGD-B7, N-(2,6-dioxopiperidin-3-yl)-6-((2-oxopiperidin-1-yl)methyl)picolinamide] | 5.65 ± 0.54 µM | 3.21 ± 0.31 µM | 15.2 ± 1.44 µM | – | – | – | – |
| CN1CCN(Cc2cccc(C(=O)NC3CCC(=O)NC3=O)n2)C(=O)C1 (centres unmarked) [MGD-B8, N-(2,6-dioxopiperidin-3-yl)-6-((4-methyl-2-oxopiperazin-1-yl)methyl)picolinamide] | 1.33 ± 0.13 µM | 1.77 ± 0.17 µM | 8.43 ± 0.8 µM | – | – | – | – |
| O=C1CCC(NC(=O)c2cccc(CN3CCOCC3=O)n2)C(=O)N1 (centres unmarked) [MGD-B9, N-(2,6-dioxopiperidin-3-yl)-6-((3-oxomorpholino)methyl)picolinamide] | 1.93 ± 0.18 µM | 2.34 ± 0.22 µM | 9.35 ± 0.89 µM | – | – | – | – |
| O=C1CCC(NC(=O)c2cccc(CN3CCSCC3=O)n2)C(=O)N1 (centres unmarked) [MGD-B10, N-(2,6-dioxopiperidin-3-yl)-6-((3-oxothiomorpholino)methyl)picolinamide] | 5.54 ± 0.53 µM | 4.32 ± 0.41 µM | 13.2 ± 1.26 µM | – | – | – | – |
| CN1CCN(Cc2cccc(C(=O)NC3CCC(=O)NC3=O)c2F)CC1 (centres unmarked) [MGD-C2, N-(2,6-dioxopiperidin-3-yl)-2-fluoro-3-((4-methylpiperazin-1-yl)methyl)benzamide] | 0.54 ± 0.05 µM | 0.77 ± 0.04 µM | 1.64 ± 0.37 µM | – | – | – | – |
| O=C1CCC(NC(=O)c2cccc(CN3CCOCC3)c2F)C(=O)N1 (centres unmarked) [MGD-C3, N-(2,6-dioxopiperidin-3-yl)-2-fluoro-3-(morpholinomethyl)benzamide] | 0.93 ± 0.048 µM | 1.98 ± 0.19 µM | 2.39 ± 0.23 µM | – | – | – | – |
| O=C1CCC(NC(=O)c2cccc(CN3CCSCC3)c2F)C(=O)N1 (centres unmarked) [MGD-C4, N-(2,6-dioxopiperidin-3-yl)-2-fluoro-3-(thiomorpholinomethyl)benzamide] | 2.43 ± 0.33 µM | 1.79 ± 0.27 µM | 5.01 ± 0.48 µM | – | – | – | – |
| O=C1CCC(NC(=O)c2cccc(CN3CCCC3=O)c2F)C(=O)N1 (centres unmarked) [MGD-C5, N-(2,6-dioxopiperidin-3-yl)-2-fluoro-3-((2-oxopyrrolidin-1-yl)methyl)benzamide] | 2.22 ± 0.21 µM | 2.04 ± 0.19 µM | 5.05 ± 0.48 µM | – | – | – | – |
| O=C1CCC(NC(=O)c2cccc(CN3CCCCC3=O)c2F)C(=O)N1 (centres unmarked) [MGD-C6, N-(2,6-dioxopiperidin-3-yl)-2-fluoro-3-((2-oxopiperidin-1-yl)methyl)benzamide] | 1.63 ± 0.16 µM | 1.33 ± 0.13 µM | 5.95 ± 0.57 µM | – | – | – | – |
| O=C1CCC(NC(=O)c2cccc(CN3CCOCC3=O)c2F)C(=O)N1 (centres unmarked) [MGD-C7, N-(2,6-dioxopiperidin-3-yl)-2-fluoro-3-((3-oxomorpholino)methyl)benzamide] | 0.68 ± 0.07 µM | 0.93 ± 0.15 µM | 2.11 ± 0.2 µM | – | – | – | – |
| O=C1CCC(N2C(=O)c3ccccc3C2=O)C(=O)N1 (centres unmarked) [Thalidomide, reference compound] | 26.5 ± 2.52 µM | 9.86 ± 0.94 µM | > 33 µM | – | – | – | – |
| N-(2,6-dioxopiperidin-3-yl)-2-fluoro-3-((2-oxopiperidin-1-yl)methyl)benzamide [MGD-C8] | – | – | 3.28 ± 0.31 µM | – | – | 1.73 ± 0.17 µM | 1.23 ± 0.12 µM |
| N-(2,6-dioxopiperidin-3-yl)-2-fluoro-3-(piperidin-1-ylmethyl)benzamide [MGD-C1] | – | – | 12.6 ± 1.2 µM | – | – | 7.36 ± 0.7 µM | 6.91 ± 0.66 µM |
| N-(2,6-dioxopiperidin-3-yl)-3-(thiomorpholinomethyl)cyclohexa-1,3-diene-1-carboxamide [MGD-A9] | – | – | 5.44 ± 0.52 µM | – | – | 1.9 ± 0.18 µM | 2.11 ± 0.2 µM |
